Reference: patent publication US10111936B2, “Metal-glycoprotein complexes and photodynamic therapy of immune privileged sites with same” (Theralase Technologies, Inc., priority 2015, dated 2018)
Read-outs that look alike come from different tables or passages of the source.

Assays:
[1] = Singlet oxygen production, cell free (SOG indicator fluorescence); format: physicochemical; parameters: unit not given here
Description: (§1) The photosensitizers were diluted in phosphate buffer (pH=7.0)+100 mM NaCl or incomplete DMEM. The irradiation was performed in 96-well plates (100 uL working volume). Generation of singlet oxygen was measured by fluorescence signal of SOG indicator, generation of hydroxyl radical by fluorescence signal of HPF indicator. The signal presented is a result of subtraction of the signal in the presence of scavengers (NaN3 for singlet oxygen and DMTU for hydroxyl radical) from the total fluorescence signal.

[2] = Fluorescence with and without transferrin; format: physicochemical; settings: for fluorescence emission maximum: 10 uM
Description: Fluorescence of TLD1433 (10 uM) was measured quartz cuvettes without Tf (in water) and in the presence of 0.2 mg/mL Tf (in phosphate buffer+100 mM NaCl, pH=7.0). Fluorescence was measured at different excitation wavelengths (380, 400, 450, 470, 500 nm).
Fluorescence of TLDOsH2dppn (10 uM) was measured quartz cuvettes without Tf (in water) and in the presence of 0.2 mg/mL Tf (in phosphate buffer+100 mM NaCl, pH=7.0). Fluorescence was measured at different excitation wavelengths (380, 400, 450, 470, 500 nm).

AY27 cancer cell line = experiment: In vitro PDT in hypoxia; format: cell-based; settings: 635 nm, 90 J cm−2, hypoxic 0.5-0.1% O2, 0.4 mg/mL human transferrin
Description: The cells were incubated for 90 minutes in premix of the photosensitizer and 0.4 mg/mL human transferrin (or without transferrin, as a control group) as described above for in vitro PDT. Dark toxicity and PDT effect of the photosensitizers on AY27 cell line under 635 nm (90 J cm−2) irradiation in the absence and presence of transferrin in normoxic (FIGS. 17A, 17B) and hypoxic (0.5-0.1% O2, FIGS. 17C, 17D) conditions. The cells were incubated with the photosensitizer and transferrin for 90 minutes. After that, the cells were irradiated and the medium was replaced with a fresh one (without photosensitizer and transferrin). On the next day (21 hours post-irradiation), viability of the cells was measured using Presto Blue viability assay, and percent of cell kill was calculated. The PDT effect shown is a result of subtraction of “photosensitizer alone” and “light alone” cell kill from the total PDT cell kill.
The cells were incubated for 90 minutes in premix of the photosensitizer and 0.4 mg/mL human transferrin (or without transferrin, as a control group) as described above for in vitro PDT. […] On the next day (21 hours post-irradiation), viability of the cells was measured using Presto Blue viability assay, and percent of cell kill was calculated. […]

normal human fibroblasts = experiment: Uptake by normal cells by ICP-MS; format: cell-based; settings: 200 uM, 0.8 mg/mL transferrin, 4 hours, much lesser extent than cancer cells
Description: Cell culture (normal human fibroblasts) was exposed to 200 uM of the photosensitizer without additional transferrin and in the presence of 0.8 mg/mL transferrin for 4 hours. The incubation mix was washed away and the cells were collected, counted, and lysed. Lysed solution was dissolved in nitric acid and appropriate metals concentration was measured using inductively coupled plasma mass spectrometry. The metals concentration is directly proportional to the concentration of the photosensitizer.

[3] = Hydroxyl radical production, cell free (HPF indicator fluorescence); format: physicochemical; parameters: unit not given here
Description: as §1

[4] = 530 nm & 1092 J cm−2, incomplete DMEM, 0.8 mg/mL transferrin
[5] = 530 nm & 1092 J cm−2, incomplete DMEM, 1.6 mg/mL transferrin
[6] = 530 nm & 1092 J cm−2, incomplete DMEM, 3.2 mg/mL transferrin
[7] = 530 nm & 1092 J cm−2, incomplete DMEM, no transferrin
[8] = 530 nm & 1092 J cm−2, phosphate buffer, 0.8 mg/mL transferrin
[9] = 530 nm & 1092 J cm−2, phosphate buffer, 1.6 mg/mL transferrin
[10] = 530 nm & 1092 J cm−2, phosphate buffer, 3.2 mg/mL transferrin
[11] = 530 nm & 1092 J cm−2, phosphate buffer, no transferrin
[12] = 635 nm & 649 J cm−2, incomplete DMEM, 0.8 mg/mL transferrin
[13] = 635 nm & 649 J cm−2, incomplete DMEM, 1.6 mg/mL transferrin
[14] = 635 nm & 649 J cm−2, incomplete DMEM, 3.2 mg/mL transferrin
[15] = 635 nm & 649 J cm−2, incomplete DMEM, no transferrin
[16] = 635 nm & 649 J cm−2, phosphate buffer, 0.8 mg/mL transferrin
[17] = 635 nm & 649 J cm−2, phosphate buffer, 1.6 mg/mL transferrin
[18] = 635 nm & 649 J cm−2, phosphate buffer, 3.2 mg/mL transferrin
[19] = 635 nm & 649 J cm−2, phosphate buffer, no transferrin
[20] = 808 nm & 4000 J cm−2, incomplete DMEM, 0.8 mg/mL transferrin
[21] = 808 nm & 4000 J cm−2, incomplete DMEM, 1.6 mg/mL transferrin
[22] = 808 nm & 4000 J cm−2, incomplete DMEM, 3.2 mg/mL transferrin
[23] = 808 nm & 4000 J cm−2, incomplete DMEM, no transferrin
[24] = 808 nm & 4000 J cm−2, phosphate buffer, 0.8 mg/mL transferrin
[25] = 808 nm & 4000 J cm−2, phosphate buffer, 1.6 mg/mL transferrin
[26] = 808 nm & 4000 J cm−2, phosphate buffer, 3.2 mg/mL transferrin
[27] = 808 nm & 4000 J cm−2, phosphate buffer, no transferrin

[Os+2].c1ccc2cc3nc4c5cccnc5c5ncccc5c4nc3cc2c1.c1ccc2nc(-c3ccc4ccccc4n3)ccc2c1.c1ccc2nc(-c3ccc4ccccc4n3)ccc2c1 [TLDOsH2dppn]
singlet oxygen production [1, 4]: 35127
singlet oxygen production [1, 5]: 43927
singlet oxygen production [1, 6]: 61734
singlet oxygen production [1, 7]: 36391
singlet oxygen production [1, 8]: 42816
singlet oxygen production [1, 9]: 56372
singlet oxygen production [1, 10]: 77219
singlet oxygen production [1, 11]: 25937
singlet oxygen production [1, 12]: 53931
singlet oxygen production [1, 13]: 75293
singlet oxygen production [1, 14]: 81807
singlet oxygen production [1, 15]: 15109
singlet oxygen production [1, 16]: 42837
singlet oxygen production [1, 17]: 51832
singlet oxygen production [1, 18]: 72938
singlet oxygen production [1, 19]: 10392
singlet oxygen production [1, 20]: 25384
singlet oxygen production [1, 21]: 55631
singlet oxygen production [1, 22]: 62804
singlet oxygen production [1, 23]: 11907
singlet oxygen production [1, 24]: 10000
singlet oxygen production [1, 25]: 30000
singlet oxygen production [1, 26]: 40000
singlet oxygen production [1, 27]: 8000
fluorescence emission maximum ([2]; 0.2 mg/mL transferrin): 650 nm
fluorescence emission maximum ([2]; no transferrin (in water)): 660 nm
fluorescence in the presence of transferrin ([2]; 0.2 mg/mL transferrin, especially at 470 nm excitation): strongly increased
PDT effect under hypoxic conditions, effect of transferrin (AY27 cancer cell line): ensured PDT effect
Therapeutic Ratio (HT1376 cells; 530 nm, 90 J cm−2, no transferrin): 1548.2
Therapeutic Ratio (HT1376 cells; 530 nm, 90 J cm−2, transferrin): 4963.8
Therapeutic Ratio (HT1376 cells; 650 nm, 90 J cm−2, no transferrin (cell not marked prophetic)): 37.7
Therapeutic Ratio (HT1376 cells; 650 nm, 90 J cm−2, transferrin): 61.9
cellular accumulation in normal cells, effect of transferrin (normal human fibroblasts): higher in the presence of transferrin
hydroxyl radical production [3, 4]: 70308
hydroxyl radical production [3, 5]: 132309
hydroxyl radical production [3, 6]: 164301
hydroxyl radical production [3, 7]: 32934
hydroxyl radical production [3, 8]: 41037
hydroxyl radical production [3, 9]: 83034
hydroxyl radical production [3, 10]: 120307
hydroxyl radical production [3, 11]: 25290
hydroxyl radical production [3, 12]: 32531
hydroxyl radical production [3, 13]: 42806
hydroxyl radical production [3, 14]: 73624
hydroxyl radical production [3, 15]: 12093
hydroxyl radical production [3, 16]: 25280
hydroxyl radical production [3, 17]: 45372
hydroxyl radical production [3, 18]: 72316
hydroxyl radical production [3, 19]: 8804
hydroxyl radical production [3, 20]: 42305
hydroxyl radical production [3, 21]: 77024
hydroxyl radical production [3, 22]: 102864
hydroxyl radical production [3, 23]: 14237
hydroxyl radical production [3, 24]: 13408
hydroxyl radical production [3, 25]: 20392
hydroxyl radical production [3, 26]: 56094
hydroxyl radical production [3, 27]: 8931
